Laboratory results from patent US20250249144A1, “PEPTIDE AMPHIPHILE SUPRAMOLECULAR POLYMERS FOR SPRAY DELIVERY AND TISSUE REGENERATION APPLICATIONS” (The University of Southern Mississippi, priority 2024, published 2025).
Non-standard residues stand in square brackets, D forms with d. Residues, ends and D or L forms follow the SMILES beside them. ξ: configuration not given here. *: point of attachment. Palmitoyl = CCCCCCCCCCCCCCCC(=O)*; aThr = C[C@H](O)[C@H](N)C(=O)O; ξV = CC(C)C(N)C(=O)O

Tests used:
dermal wound = conditions: rat full thickness excision model; cited from earlier work
receptor of EPO = target: T1, receptor of EPO (Homo sapiens, UniProt P19235); conditions: cyclized through the cysteine residues; cited from earlier work
T1 sequence (P19235 25-508): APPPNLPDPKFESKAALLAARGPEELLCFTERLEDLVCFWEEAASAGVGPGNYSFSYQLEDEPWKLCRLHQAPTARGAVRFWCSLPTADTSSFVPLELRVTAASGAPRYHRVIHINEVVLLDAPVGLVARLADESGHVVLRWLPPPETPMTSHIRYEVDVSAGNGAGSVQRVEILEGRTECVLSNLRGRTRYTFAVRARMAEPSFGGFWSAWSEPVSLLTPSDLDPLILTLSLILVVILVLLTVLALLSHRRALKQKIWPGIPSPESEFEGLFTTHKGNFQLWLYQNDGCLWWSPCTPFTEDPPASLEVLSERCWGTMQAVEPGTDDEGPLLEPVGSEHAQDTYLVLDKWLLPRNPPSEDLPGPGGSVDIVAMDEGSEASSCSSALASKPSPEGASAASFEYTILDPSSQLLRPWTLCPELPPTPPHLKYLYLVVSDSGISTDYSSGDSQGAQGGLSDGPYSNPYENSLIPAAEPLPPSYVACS

erythropoiesis = conditions: mice; cited from earlier work
diabetic wound = diabetic wound model; cited from earlier work
full thickness burn = experiment: burn injury murine model, wound closure; format: in vivo; conditions: mouse, 3 days and 7 days post treatment, one-way ANOVA, p<0.05
Description: The benefits of, and potential for, regeneration of the biocompatible and bioactive PA nanofiber scaffold was assessed in a mouse burn injury model. […] (See FIGS. 5 and 6). A 1×1 cm diameter steel billet was heated to 100° C. in a dry heat bath. Mice were anesthetized using isoflurane throughout the procedures. After successful anesthesia had been achieved, mice were clipped circumferentially on their trunks/dorsum and prepped with betadine. Burn injury was accomplished by applying the previously heated billet to the dorsum of each animal for 10 seconds. A total of 6 applications of the rod (3 on each side of the midline back) produced an approx. 20% total body surface area (TBSA) full thickness burn. Mice were further wrapped with a self-adherent wrap to protect the wound. Mice were resuscitated using 1.0 mL i.p. saline (which included 0.03 mL Buprenex SR and 0.06 mL Meloxicam SR) and placed onto warming pads until full recovery from anesthesia was determined. 8 hours post-burn, they received a 2nd bolus of 1 mL i.p. fluid. […] Healing was assessed following a single application. […] Quantification of wound healing was accomplished by digital image planimetry with ImageJ at 3 days, and 7 days post treatment, with representative images of wound healing at day 15 post treatment also being provided.

[1] = tested on: full thickness injury, atopic dermatitis; conditions: rodent models of full thickness injury and atopic dermatitis; cited from earlier work
ERK receptor = conditions: cited from earlier work

In the case of `CC(C)C[C@@H](NC(=O)CNC(=O)[C@@H](Cc1ccc(O)cc1)NC(=O)[C@@H](NC(=O)[C@H](NC(=O)[C@@H](N)CO)C(C)C)C(C)C)C(=O)N[C@@H](CCCNC(=N)N)C(=O)O` [SVVYGLR, SVVYGLR (SEQ ID NO.: 3)], the dermal wound healing (dermal wound) is given as “effective in promoting dermal wound healing”.

In the case of “GGTYSCHFGPLTWVCKPQGG (SEQ ID NO.: 1) [EMP1]”, the “activation of the EPO receptor” value (receptor of EPO) is listed as “capable of activating the receptor of EPO” and the erythropoiesis (erythropoiesis) is listed as “stimulating erythropoiesis”.

For `N=C(N)NCCC[C@H](NC(=O)[C@@H](Cc1cnc[nH]1)NC(=O)[C@@H](N)CCC(N)=O)C(=O)N[C@H](CCC(=O)O)C(=O)N[C@@H](CC(=O)O)C(=O)NCC(=O)N[C@@H](CO)C(=O)O` [QHREDGS, QHREDGS (SEQ ID NO.4)], the wound closure (diabetic wound) is listed as “significantly accelerate wound closure”.

With `CCCCCCCCCCCCCCCC(=O)NC(C(=O)N[C@H](C(=O)NCC(=O)N[C@@H](C)C(=O)NCC(=O)N[C@@H](C)C(=O)N[C@H](CCC(=O)O)C(=O)N[C@@H](CCC(=O)O)C(=O)N[C@H](CCC(=O)O)C(N)=O)C(C)C)C(C)C` (stereo partly shown) [diluent PA] (Palmitoyl-[ξV]VGAGA[dE]E[dE]-NH2) the “wound healing by digital image planimetry, significance vs control” value (full thickness burn) was “significant at 7 days”.

In the case of `C[C@H](O)[C@H](NC(=O)[C@@H](CCCNC(=N)N)NC(=O)CNC(=O)[C@@H](CCC(=O)O)NC(=O)[C@@H](N)CCCNC(=N)N)C(=O)O` [REGRT, REGRT (SEQ ID NO.2)] (H-R[dE]G[dR][aThr]-OH), the wound healing [1] is given as “promotion of wound healing” and the “phosphorylation of the ERK receptor” value (ERK receptor) is given as “effective phosphorylation of the ERK receptor”.
